Values quoted from earlier work in PubChem BioAssay AID1259409 (Chemical Carcinogenesis Research Information System (CCRIS), 2018).
Where “and” joins values, the source holds several entries; their conditions need not be identical. Equal values may be shown once.

Tested on: rodent chemically induced tumor inhibition, incidence and multiplicity
Assay: CCRIS tumor inhibitor studies
Details: Route [Inhibitor]: ORAL, Species: RAT

O=C(O)c1ccc(O)c(O)c1
tumour outcome (control, treated, inhibition, significance) (Carcinogen: 2-AMINO-1-METHYL-6-PHENYLIMIDAZO[4,5-B]PYRIDINE [105650-23-5], Dose [Inhibitor]: 2,000 PPM IN DIET FOR 4 WK BEGINNING WK PRIOR TO FIRST CARCINOGEN DOSE (STUDY DURATION: 25 WK), Strain/Sex: SPRAGUE-DAWLEY/FEMALE, Target Tissue: Type of Lesion: MAMMARY GLAND: FIBROADENOMA OR DUCTAL CARCINOMA, Dose [Carcinogen]: 85 MG/KG BW 2X/WK FOR 4 WK (STUDY DURATION: 25 WK), Promoter: NONE): 63%, 59%, 6%, not significant
tumour outcome (control, treated, inhibition, significance) (Carcinogen: 4-NITROQUINOLINE-1-OXIDE, 56-57-5, Dose [Inhibitor]: 0, 500 PPM IN DIET FOR 10 WK BEGINNING 1 WK PRIOR TO CARCINOGEN TREATMENT (STUDY DURATION: 32 WK), Strain/Sex: F344/MALE, Target Tissue: Type of Lesion: TONGUE: PAPILLOMA, Dose [Carcinogen]: 20 PPM IN DRINKING WATER FOR 8 WK, Promoter: NONE USED): 3/19 (16%), 3/20 (15%), 6%, not significant and 16%, 15%, 6%, not significant
tumour outcome (control, treated, inhibition, significance) (Carcinogen: 4-NITROQUINOLINE-1-OXIDE, 56-57-5, Dose [Inhibitor]: 0, 500 PPM IN DIET FOR 22 WK BEGINNING 1 WK POST CARCINOGEN TREATMENT (STUDY DURATION: 32 WK), Strain/Sex: F344/MALE, Target Tissue: Type of Lesion: TONGUE: PAPILLOMA, Dose [Carcinogen]: 20 PPM IN DRINKING WATER FOR 8 WK, Promoter: NONE USED): 3/19 (16%), 3/21 (14%), 13%, not significant and 16%, 14%, 13%, not significant
tumour outcome (control, treated, inhibition, significance) (Carcinogen: 4-NITROQUINOLINE-1-OXIDE, 56-57-5, Dose [Inhibitor]: 0, 1000 PPM IN DIET FOR 10 WK BEGINNING 1 WK PRIOR TO CARCINOGEN TREATMENT (STUDY DURATION: 32 WK), Strain/Sex: F344/MALE, Target Tissue: Type of Lesion: TONGUE: PAPILLOMA, Dose [Carcinogen]: 20 PPM IN DRINKING WATER FOR 8 WK, Promoter: NONE USED): 3/19 (16%), 2/19 (11%), 31%, not significant and 16%, 11%, 31%, not significant
tumour outcome (control, treated, inhibition, significance) (Carcinogen: 4-NITROQUINOLINE-1-OXIDE, 56-57-5, Dose [Inhibitor]: 0, 1000 PPM IN DIET FOR 22 WK BEGINNING 1 WK POST CARCINOGEN TREATMENT (STUDY DURATION: 32 WK), Strain/Sex: F344/MALE, Target Tissue: Type of Lesion: TONGUE: PAPILLOMA, Dose [Carcinogen]: 20 PPM IN DRINKING WATER FOR 8 WK, Promoter: NONE USED): 3/19 (16%), 4/19 (21%), -31%, not significant
tumour outcome (control, treated, inhibition, significance) (Carcinogen: 4-NITROQUINOLINE-1-OXIDE, 56-57-5, Dose [Inhibitor]: 0, 2000 PPM IN DIET FOR 10 WK BEGINNING 1 WK PRIOR TO CARCINOGEN TREATMENT (STUDY DURATION: 32 WK), Strain/Sex: F344/MALE, Target Tissue: Type of Lesion: TONGUE: PAPILLOMA, Dose [Carcinogen]: 20 PPM IN DRINKING WATER FOR 8 WK, Promoter: NONE USED): 3/19 (16%), 2/21 (10%), 38%, not significant and 16%, 10%, 38%, not significant
tumour outcome (control, treated, inhibition, significance) (Carcinogen: 4-NITROQUINOLINE-1-OXIDE, 56-57-5, Dose [Inhibitor]: 0, 2000 PPM IN DIET FOR 22 WK BEGINNING 1 WK POST CARCINOGEN TREATMENT (STUDY DURATION: 32 WK), Strain/Sex: F344/MALE, Target Tissue: Type of Lesion: TONGUE: PAPILLOMA, Dose [Carcinogen]: 20 PPM IN DRINKING WATER FOR 8 WK, Promoter: NONE USED): 3/19 (16%), 2/20 (10%), 38%, not significant and 16%, 10%, 38%, not significant
tumour outcome (control, treated, inhibition, significance) (Carcinogen: AZOXYMETHANE, 24843-45-2, Dose [Inhibitor]: 0, 500 PPM IN DIET FOR 28 WK BEGINNING 1 WK POST CARCINOGEN TREATMENT (STUDY DURATION: 32 WK), Strain/Sex: F344/MALE, Target Tissue: Type of Lesion: COLON: ADENOMA, Dose [Carcinogen]: 15 MG/KG BW 1/WK FOR 3 WK, Promoter: NONE USED): 10%, 15%, -50%, not significant
tumour outcome (control, treated, inhibition, significance) (Carcinogen: AZOXYMETHANE, 25843-45-2, Dose [Inhibitor]: 0, 250 PPM IN DIET FOR 4 WK BEGINNING 1 WK PRIOR TO CARCINOGEN TREATMENT (STUDY DURATION: 32 WK), Strain/Sex: F344/MALE, Target Tissue: Type of Lesion: COLON: ADENOCARCINOMA, Dose [Carcinogen]: 15 MG/KG BW 1/WK FOR 3 WK, Promoter: NONE USED): 75%, 40%, 47%, not significant
tumour outcome (control, treated, inhibition, significance) (Carcinogen: AZOXYMETHANE, 25843-45-2, Dose [Inhibitor]: 0, 250 PPM IN DIET FOR 4 WK BEGINNING 1 WK PRIOR TO CARCINOGEN TREATMENT (STUDY DURATION: 32 WK), Strain/Sex: F344/MALE, Target Tissue: Type of Lesion: COLON: ADENOMA, Dose [Carcinogen]: 15 MG/KG BW 1/WK FOR 3 WK, Promoter: NONE USED): 10%, 5%, 50%, not significant
tumour outcome (control, treated, inhibition, significance) (Carcinogen: AZOXYMETHANE, 25843-45-2, Dose [Inhibitor]: 0, 250 PPM IN DIET FOR 4 WK BEGINNING 1 WK PRIOR TO CARCINOGEN TREATMENT (STUDY DURATION: 32 WK), Strain/Sex: F344/MALE, Target Tissue: Type of Lesion: LARGE INTESTINE: ADENOCARCINOMA, Dose [Carcinogen]: 15 MG/KG BW 1/WK FOR 3 WK, Promoter: NONE USED): 15/20 (75%), 8/20 (40%), 47%, not significant
tumour outcome (control, treated, inhibition, significance) (Carcinogen: AZOXYMETHANE, 25843-45-2, Dose [Inhibitor]: 0, 250 PPM IN DIET FOR 4 WK BEGINNING 1 WK PRIOR TO CARCINOGEN TREATMENT (STUDY DURATION: 32 WK), Strain/Sex: F344/MALE, Target Tissue: Type of Lesion: LARGE INTESTINE: ADENOMA, Dose [Carcinogen]: 15 MG/KG BW 1/WK FOR 3 WK, Promoter: NONE USED): 2/20 (10%), 1/20 (5%), 50%, not significant
tumour outcome (control, treated, inhibition, significance) (Carcinogen: AZOXYMETHANE, 25843-45-2, Dose [Inhibitor]: 0, 250 PPM IN DIET FOR 4 WK BEGINNING 1 WK PRIOR TO CARCINOGEN TREATMENT (STUDY DURATION: 32 WK), Strain/Sex: F344/MALE, Target Tissue: Type of Lesion: SMALL INTESTINE: ADENOCARCINOMA, Dose [Carcinogen]: 15 MG/KG BW 1/WK FOR 3 WK, Promoter: NONE USED): 6/20 (30%), 7/20 (35%), -17%, not significant
tumour outcome (control, treated, inhibition, significance) (Carcinogen: AZOXYMETHANE, 25843-45-2, Dose [Inhibitor]: 0, 250 PPM IN DIET FOR 4 WK BEGINNING 1 WK PRIOR TO CARCINOGEN TREATMENT (STUDY DURATION: 32 WK), Strain/Sex: F344/MALE, Target Tissue: Type of Lesion: SMALL INTESTINE: ADENOMA, Dose [Carcinogen]: 15 MG/KG BW 1/WK FOR 3 WK, Promoter: NONE USED): 1/20 (5%), 0/20 (0%), 100%, not significant
tumour outcome (control, treated, inhibition, significance) (Carcinogen: AZOXYMETHANE, 25843-45-2, Dose [Inhibitor]: 0, 250 PPM IN DIET FOR 28 WK BEGINNING 1 WK POST CARCINOGEN TREATMENT (STUDY DURATION: 32 WK), Strain/Sex: F344/MALE, Target Tissue: Type of Lesion: COLON: ADENOCARCINOMA, Dose [Carcinogen]: 15 MG/KG BW 1/WK FOR 3 WK, Promoter: NONE USED): 75%, 40%, 47%, not significant
tumour outcome (control, treated, inhibition, significance) (Carcinogen: AZOXYMETHANE, 25843-45-2, Dose [Inhibitor]: 0, 250 PPM IN DIET FOR 28 WK BEGINNING 1 WK POST CARCINOGEN TREATMENT (STUDY DURATION: 32 WK), Strain/Sex: F344/MALE, Target Tissue: Type of Lesion: COLON: ADENOMA, Dose [Carcinogen]: 15 MG/KG BW 1/WK FOR 3 WK, Promoter: NONE USED): 10%, 20%, -100%, not significant
tumour outcome (control, treated, inhibition, significance) (Carcinogen: AZOXYMETHANE, 25843-45-2, Dose [Inhibitor]: 0, 250 PPM IN DIET FOR 28 WK BEGINNING 1 WK POST CARCINOGEN TREATMENT (STUDY DURATION: 32 WK), Strain/Sex: F344/MALE, Target Tissue: Type of Lesion: LARGE INTESTINE: ADENOCARCINOMA, Dose [Carcinogen]: 15 MG/KG BW 1/WK FOR 3 WK, Promoter: NONE USED): 15/20 (75%), 8/20 (40%), 47%, not significant
tumour outcome (control, treated, inhibition, significance) (Carcinogen: AZOXYMETHANE, 25843-45-2, Dose [Inhibitor]: 0, 250 PPM IN DIET FOR 28 WK BEGINNING 1 WK POST CARCINOGEN TREATMENT (STUDY DURATION: 32 WK), Strain/Sex: F344/MALE, Target Tissue: Type of Lesion: LARGE INTESTINE: ADENOMA, Dose [Carcinogen]: 15 MG/KG BW 1/WK FOR 3 WK, Promoter: NONE USED): 2/20 (10%), 4/20 (20%), -100%, not significant
tumour outcome (control, treated, inhibition, significance) (Carcinogen: AZOXYMETHANE, 25843-45-2, Dose [Inhibitor]: 0, 250 PPM IN DIET FOR 28 WK BEGINNING 1 WK POST CARCINOGEN TREATMENT (STUDY DURATION: 32 WK), Strain/Sex: F344/MALE, Target Tissue: Type of Lesion: SMALL INTESTINE: ADENOCARCINOMA, Dose [Carcinogen]: 15 MG/KG BW 1/WK FOR 3 WK, Promoter: NONE USED): 6/20 (30%), 5/20 (25%), 17%, not significant
tumour outcome (control, treated, inhibition, significance) (Carcinogen: AZOXYMETHANE, 25843-45-2, Dose [Inhibitor]: 0, 250 PPM IN DIET FOR 28 WK BEGINNING 1 WK POST CARCINOGEN TREATMENT (STUDY DURATION: 32 WK), Strain/Sex: F344/MALE, Target Tissue: Type of Lesion: SMALL INTESTINE: ADENOMA, Dose [Carcinogen]: 15 MG/KG BW 1/WK FOR 3 WK, Promoter: NONE USED): 1/20 (5%), 0/20 (0%), 100%, not significant
